Laboratory results: patent US20050084484A1, “Reduction of oxidative stress factors” (Probi AB, priority 1999, published 2005)

What was measured:
[1] = test system: monocytes and lymphocytes; assay: Effect of ibuprofen on ROS production, comparative study; format: in vivo, human; details: ibuprofen 500 mg/d for 3 weeks, six healthy volunteers; preliminary data; compared with Lactobacillus plantarum 299v
Method: The measurement of cell oxidation is based on reactive oxygen species (ROS) mediated conversion of nonfluorescent 2,7′-dichlorofluorescein (DCFH), loaded into cells as 2,7′-dichlorofluorescein diacetate, into fluorescent DCF with increased fluorescence emission reflecting enhanced oxidative stress. Freshly isolated PBMC, consisting of approximatively 30% monocytes and 70% lymphocytes, were resuspended in phosphate buffered saline (PBS) followed by incubation with 20 μM […] at 37° C. for 30 min in the dark. The cells were then washed with PBS. The relative fluorescence intensity of the fluorophore 2′,7-dichlorofluorescein, which is formed by peroxide oxidation of its nonfluorescent precursor, was detected with cytofluorimetric assay (FACScan, Becton Dickinson). During flow cytometric analysis monocytes and lymphocytes were gated on the basis of forward scater (FCS) and side scater (SCC). The results are expressed as mean fluorescence intensity […].
In order to investigate the mechanisms behind the reduction of ROS by ibuprofen, a propionic acid derivative and a well-known antiinflammatory drug, ibuprofen was administered in an amount of 500 mg/d to the same group of six healthy volunteers as participated in the study described in Test 1 for 3 weeks.

[2] = test system: Human monocyte macrophage cells; assay: Propionic acid induced reduction of oxidative stress (8-Isoprostane EIA); format: cell-based; details: 10 μM propionic acid 4 h, then LPS 1.0 ng/ml 24 h; versus control cells; mean of 3 experiments
Method: Human monocyte macrophage cells were isolated as described above and 6 million cells were preincubated in 2 ml of RPMI-1640 medium (10% fetalcalf serum, […] of penicillin/streptomycin, 2 mM glutamine) in dishes having a diameter of […]. 10 μM propionic acid was then added and the cells were incubated at 37° C. for 4 h. The medium was subsequently removed and replaced with fresh medium and the cells were stimulated with LPS (lipopolysaccharide), 1.0 ng/ml medium, in order to provoke prooxidant stress. After 24 h the medium was removed and concentrated 10 times by evaporation. Oxidative stress with and without (control cells) propionic acid was evaluated using the 8-Isoprostane EIA kit from Cayman Chemical.
The reduction of oxidative stress expressed as the mean value from 3 experiments of the decrease in the 8-isoprostane level was 47%.

Structure (SMILES)	ROS response of monocytes and lymphocytes [1]	Reduction of oxidative stress, decrease in the 8-isoprostane level [2]
CC(C)Cc1ccc(C(C)C(=O)O)cc1 (centres unmarked) [ibuprofen]	respond in exactly the same way	–
CCC(=O)O [propionic acid]	–	47%
